Measured values published in US6613761B1, “Benzoxazepine compounds, their production and use” (Takeda Chemical Industries, Ltd., priority 1995, dated 2003).
pIC50: −log10 of the molar value. Counter-ions that a name gives are not always drawn.

Columns and labels:
squalene synthetase = target: T1, squalene synthetase (Homo sapiens, UniProt P37268); assay: Squalene synthetase inhibitory activity (human-derived enzyme prepared from HepG2 cells); format: biochemical; details: [1-3H] farnesyl pyrophosphate, 37° C., 45 minutes, read-out: Inhibitory Activity (IC50, 10^−9 M)
T1 construct: This suspension was used as the enzyme solution; endogenous in cells; host or cells: HepG2 human hepatic carcinoma cells; membrane fraction (105000×g sediment) of the sonicate
T1 sequence (P37268 1-417): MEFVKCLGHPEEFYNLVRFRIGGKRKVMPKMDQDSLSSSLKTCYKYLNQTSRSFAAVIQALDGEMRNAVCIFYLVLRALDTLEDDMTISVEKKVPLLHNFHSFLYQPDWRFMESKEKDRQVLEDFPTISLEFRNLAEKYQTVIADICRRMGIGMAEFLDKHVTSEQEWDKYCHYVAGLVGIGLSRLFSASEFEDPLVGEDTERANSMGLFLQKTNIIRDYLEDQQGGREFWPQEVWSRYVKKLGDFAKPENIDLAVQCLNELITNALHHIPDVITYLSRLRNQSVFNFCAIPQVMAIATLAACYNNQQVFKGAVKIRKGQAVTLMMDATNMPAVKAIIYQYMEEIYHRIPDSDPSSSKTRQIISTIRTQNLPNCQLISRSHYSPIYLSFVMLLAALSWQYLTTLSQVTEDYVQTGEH
Method: The squalene synthetase inhibitory activity was assayed as follows with the enzyme solutions prepared in accordance with the method described below.
More specifically, an enzyme solution (protein content 0.8 μg) prepared in accordance with the method described below was added to a solution (total volume 50 μl)) containing 5 μM [1-^3H] farnesyl pyrophosphate (specific activity 25 μCi/mole), 1 mM NADPH (nicotinamide adenine dinucleotide phosphate of reduced type), 5 mM MgCl2, 6 mM glutathione, a 100 mM buffer solution of potassium phosphate (pH 7.4) and a test drug (used as an aqueous solution or a DMSO solution), then the reaction was allowed to proceed at 37° C. for 45 minutes. To the reaction mixture was added 150 μl of a mixture of chloroform and methanol (1:2) to suspend the reaction, followed by adding 50 Al of chloroform and 50 μl of a 3N solution of sodium hydroxide. 50 μl of the chloroform layer (lower layer) containing the reaction mixture having squalene as the principal component and 3 ml of toluene-based liquid scintillator were mixed, and its radioactivity was determined by means of a liquid scintillation counter.
The squalene synthetase inhibitory activity was expressed in terms of the concentration inhibiting by 50% the radioactivity taken into the chloroform layer (IC50, molar concentration (M)), as shown in Table 7. Preparation of human-derived enzyme
Human hepatic carcinoma cells HepG2 (about 1×10^9 cells) obtained by incubation on a Dulbecco-modified Eagle's medium (37° C. in the presence of 5% CO2) containing 10% fetal bovine serum were suspended in 10 ml of an ice-cooled buffer solution (100 mM potassium phosphate buffer (pH 7.4), 30 mM nicotinamide and 2.5 mM MgCl2]. The cells were crashed by means of ultrasonication (for 30 seconds, twice). The sonicate thus obtained was subjected to centrifugation for 20 minutes (4° C.) with 10000×g. The supernatant layer was subjected to further centrifugation for 90 minutes (4° C.) with 105000×g. The sediment was then suspended in an ice-cooled 100 mM potassium phosphate buffer (pH 7.4), which was again subjected to centrifugation for 90 minutes (4° C.) with 105000×g. This fraction was suspended in an ice-cooled 100 mM potassium phosphate buffer solution (pH 7.4) (about 4 mg/ml protein concentration). This suspension was used as the enzyme solution.

| SMILES | pIC50 (squalene synthetase) | melting point |
| --- | --- | --- |
| COc1cccc([C@H]2O[C@H](CC(=O)NS(=O)(=O)c3ccccc3C)C(=O)N(CC(C)(C)C)c3ccc(Cl)cc32)c1OC [Compound 17-1] | 7.89 |  |
| COc1cccc([C@H]2O[C@H](CC(=O)N3CCC(O)(C(=O)O)CC3)C(=O)N(CC(C)(C)C)c3ccc(Cl)cc32)c1OC [Compound 4-19] | 7.74 | 156 to 159 °C |
| COc1cccc([C@H]2O[C@H](CC(=O)N3CCC(C(=O)NS(C)(=O)=O)CC3)C(=O)N(CC(C)(C)C)c3ccc(Cl)cc32)c1OC [Compound 18] | 7.82 | 187 to 189 °C |
| CCOP(=O)(CNC(=O)C[C@H]1O[C@H](c2cccc(OC)c2OC)c2cc(Cl)ccc2N(CC(C)(C)CO)C1=O)OCC |  | 138 to 140 °C |
| COc1cccc([C@H]2O[C@H](CC(=O)N3CCC(CC(=O)NS(C)(=O)=O)CC3)C(=O)N(CC(C)(C)CO)c3ccc(Cl)cc32)c1OC [Compound 21, N-methylsulfonyl-[N-[(3R,5S)-7-chloro-5-(2,3-dimethoxyphenyl)-1-(3-hydroxy-2,2-dimethylpropyl)-2-oxo-1,2,3,5-tetrahydro-4,1-benzoxazepine-3-acetyl]piperidine]-4-acetamide] | 7.59 | 175 to 180 °C |
| COc1cccc([C@H]2O[C@H](CC(=O)N3CCN(CC(=O)O)C(=O)C3)C(=O)N(CC(C)(C)C)c3ccc(Cl)cc32)c1OC [Compound 4-31] | 7.70 | 162 to 164 °C |
| COc1cccc([C@H]2O[C@H](CC(=O)N3CCC(=CC(=O)O)CC3)C(=O)N(CC(C)(C)C)c3ccc(Cl)cc32)c1OC [Compound 4-18] | 7.74 | 228 to 230 °C |
| COc1cccc([C@H]2O[C@H](CC(=O)N3CCC(CCc4nnn[nH]4)CC3)C(=O)N(CC(C)(C)C)c3ccc(Cl)cc32)c1OC [Compound 25, 5-[2-[N-[(3R,5S)-7-chloro-5-(2,3-dimethoxyphenyl)-1-neopentyl-2-oxo-1,2,3,5-tetrahydro-4,1-benzoxazepine-3-acetyl]piperidin-4-yl]ethyl]1H(or 3H)-tetrazole] | 7.54 | 155 to 158 °C |
| COc1cccc([C@H]2O[C@H](Cc3nnn[nH]3)C(=O)N(CC(C)(C)C)c3ccc(Cl)cc32)c1OC [Compound 7, (3R,5S)-7-Chloro-5-(2,3-dimethoxyphenyl)-1-neopentyl-1,2,3,5-tetrahydro-3-[1H(or 3H)-tetrazol-5-yl]methyl-4,1-benzoxazepin-2-one] | 7.96 | 148 to 150 °C |
| COc1cccc([C@H]2O[C@H](CC(=O)N3CCC(Cc4nnn[nH]4)CC3)C(=O)N(CC(C)(C)C)c3ccc(Cl)cc32)c1OC [Compound 24, 5-[[N-[(3R,5S)-7-chloro-5-(2,3-dimethoxyphenyl)-1-neopentyl-2-oxo-1,2,3,5-tetrahydro-4,1-benzoxazepine-3-acetyl]piperidin-4-yl]methyl]1H(or 3H)-tetrazole] | 7.77 | 168 to 170 °C |
| COc1cccc([C@H]2O[C@H](Cc3nnn[nH]3)C(=O)N(CC(C)(C)CO)c3ccc(Cl)cc32)c1OC [Compound 11, (3R, 5S)-7-Chloro-5-(2,3-dimethoxyphenyl)-1-(3-hydroxy-2,2-dimethylpropyl)-1,2,3,5-tetrahydro-3-[1H (or 3H)-tetrazol-5-yl]methyl-4,1-benzoxazepin-2-one] |  | 158 to 160 °C |
| COc1cccc([C@H]2O[C@H](CC(=O)NS(=O)(=O)c3ccccc3)C(=O)N(CC(C)(C)C)c3ccc(Cl)cc32)c1OC [Compound 17-2] | 8.03 | 158 to 161 °C |
| COc1cccc([C@H]2O[C@H](CC(=O)N3CCC(C(=O)O)CC3)C(=O)N(CC(C)(C)CO)c3ccc(Cl)cc32)c1OC [Compound 13-2] | 7.74 |  |
| COc1cccc([C@H]2O[C@H](Cc3nnn[nH]3)C(=O)N(CC(C)(C)C)c3ccc(Cl)cc32)c1OC [Compound 9, (3R, 5S)-7-Chloro-5-(2,3-dimethoxyphenyl)-1-neopentyl-1,2,3,5-tetrahydro-3-(tetrazol-5-yl)methyl-4,1-benzoxazepin-2-one sodium salt] | 8.02 |  |
| COc1cccc([C@H]2O[C@H](CC(=O)NS(C)(=O)=O)C(=O)N(CC(C)(CO)CO)c3ccc(Cl)cc32)c1OC [Compound 20, (3R,5S)-N-methylsulfonyl-7-chloro-5-(2,3-dimethoxyphenyl)-1-(3-hydroxy-2-hydroxymethyl-2-methylpropyl)-2-oxo-1,2,3,5-tetrahydro-4,1-benzoxazepine-3-acetamide] | 7.32 |  |
| COc1cccc([C@H]2O[C@H](CC(=O)NS(C)(=O)=O)C(=O)N(CC(C)(C)COC(C)=O)c3ccc(Cl)cc32)c1OC [Compound 41, (3R,5S)-N-Methylsulfonyl-1-(3-acetoxy-2,2-dimethylpropyl)-7-chloro-5-(2,3-dimethoxyphenyl)-2-oxo-1,2,3,5-tetrahydro-4,1-benzoxazepine-3-acetamide] |  | 108 to 112 °C |

Further lines, results first:

| pIC50 (squalene synthetase) | melting point | SMILES |
| --- | --- | --- |
| 7.85 | 122 to 124 °C | COc1cccc([C@H]2O[C@H](CC(=O)NCC(O)CC(=O)O)C(=O)N(CC(C)(C)C)c3ccc(Cl)cc32)c1OC (some centres unmarked) [Compound 4-24] |
| 7.82 | 129 to 132 °C | COc1cccc([C@H]2O[C@H](CC(=O)N[C@H](C(=O)O)C(C)C)C(=O)N(CC(C)(C)C)c3ccc(Cl)cc32)c1OC [Compound 4-29] |
| 7.49 | 221 to 223 °C | COc1cccc([C@H]2O[C@H](CC(=O)NS(C)(=O)=O)C(=O)N(CC(C)(C)CO)c3ccc(Cl)cc32)c1OC [Compound 19, (3R,5S)-N-methylsulfonyl-7-chloro-5-(2,3-dimethoxyphenyl)-1-(3-hydroxy-2,2-dimethylpropyl)-2-oxo-1,2,3,5-tetrahydro-4,1-benzoxazepine-3-acetamide] |
| 7.96 | 134 to 136 °C | COc1cccc([C@H]2O[C@H](CC(=O)N(C)CC(=O)O)C(=O)N(CC(C)(C)C)c3ccc(Cl)cc32)c1OC [Compound 4-12] |
| 7.96 | 145 to 150 °C | COc1cccc([C@H]2O[C@H](CC(=O)N[C@@H](CC(=O)O)C(=O)O)C(=O)N(CC(C)(C)C)c3ccc(Cl)cc32)c1OC [Compound 4-10] |
| 7.82 | 160 to 162 °C | COc1cccc([C@H]2O[C@H](CC(=O)N[C@@H](Cc3ccc(O)cc3)C(=O)O)C(=O)N(CC(C)(C)C)c3ccc(Cl)cc32)c1OC [Compound 4-26] |
| 7.77 | 163 to 166 °C | COc1cccc([C@H]2O[C@H](CC(=O)N3CCC(O)(CC(=O)O)CC3)C(=O)N(CC(C)(C)C)c3ccc(Cl)cc32)c1OC [Compound 4-20] |
| 8.07 | 152 to 155 °C | COc1cccc([C@H]2O[C@H](CC(=O)NCP(=O)(O)O)C(=O)N(CC(C)(C)C)c3ccc(Cl)cc32)c1OC [Compound 22, (3R,5S)-N-phosphonomethyl-7-chloro-5-(2,3-dimethoxyphenyl)-1-neopentyl-2-oxo-1,2,3,5-tetrahydro-4,1-benzoxazepine-3-acetamide] |
| 7.96 | 149 to 150 °C | COc1cccc([C@H]2O[C@H](CC(=O)NS(=O)(=O)C(C)C)C(=O)N(CC(C)(C)C)c3ccc(Cl)cc32)c1OC [Compound 17-3] |
| 7.70 |  | COc1cccc([C@H]2O[C@H](CC(=O)NCP(=O)(O)O)C(=O)N(CC(C)(C)CO)c3ccc(Cl)cc32)c1OC [Compound 27, (3R,5S)-N-phosphonomethyl-7-chloro-5-(2,3-dimethoxyphenyl)-1-(3-hydroxy-2,2-dimethylpropyl)-2-oxo-1,2,3,5-tetrahydro-4,1-benzoxazepine-3-acetamide] |
